Values quoted from earlier work, collected in US8545863B2, “Insecticides for agricultural and horticultural crops” (Globachem, priority 2009, dated 2013).

Test system: apple scab (V. inequalis)

Compound: O=C([O-])O.[K+] [Potassium bicarbonate, potassium bicarbonate]
- decreasing fruit and leaf scab (apple scab): effective

Compound: [Ca+2].[OH-].[OH-] [calcium hydroxide]
- concentration preventing germination of spores and killing the spore sacks (asci) (apple scab (V. inequalis)): 4.3 g/L
